Experimental data from PubChem BioAssay AID2060607 (Molecular Pharmacology Branch, DTP, NCI, 2025).

Tested on: 876862-298-R-J1-PDC complex spheroids, viability % test/control
Assay: Anticancer human tumor 876862-298-R-J1-PDC patient-derived endometrial carcinoma cell line growth inhibition [CLK]
Conditions: for IC50: curve of first compound; for viability, T/C: stronger effect = lower value
Procedure, shortened: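 Patient-derived tumor cells grown as complex spheroids with HUVEC endothelial cells and mesenchymal stem cells, treated with drug combinations. Concentrations descend in half-log steps from near clinical Cmax, or from 10 microM if Cmax unknown.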

[1] = second compound 0.0316 µM, first compound 0.0316 µM
[2] = second compound 0.0316 µM, first compound 0.1 µM
[3] = second compound 0.0316 µM, first compound 0.316 µM
[4] = second compound 0.0316 µM, first compound 1 µM
[5] = second compound 0.0316 µM, first compound 3.16 µM
[6] = second compound 0.0316 µM, first compound 10 µM
[7] = second compound 0.1 µM, first compound 0.0316 µM
[8] = second compound 0.1 µM, first compound 0.1 µM
[9] = second compound 0.1 µM, first compound 0.316 µM
[10] = second compound 0.1 µM, first compound 1 µM
[11] = second compound 0.1 µM, first compound 3.16 µM
[12] = second compound 0.1 µM, first compound 10 µM
[13] = second compound 0.316 µM, first compound 0.0316 µM
[14] = second compound 0.316 µM, first compound 0.1 µM
[15] = second compound 0.316 µM, first compound 0.316 µM
[16] = second compound 0.316 µM, first compound 1 µM
[17] = second compound 0.316 µM, first compound 3.16 µM
[18] = second compound 0.316 µM, first compound 10 µM
[19] = second compound 1 µM, first compound 0.0316 µM
[20] = second compound 1 µM, first compound 0.1 µM
[21] = second compound 1 µM, first compound 0.316 µM
[22] = second compound 1 µM, first compound 1 µM
[23] = second compound 1 µM, first compound 3.16 µM
[24] = second compound 1 µM, first compound 10 µM
[25] = second compound 3.16 µM, first compound 0.0316 µM
[26] = second compound 3.16 µM, first compound 0.1 µM
[27] = second compound 3.16 µM, first compound 0.316 µM
[28] = second compound 3.16 µM, first compound 1 µM
[29] = second compound 3.16 µM, first compound 3.16 µM
[30] = second compound 3.16 µM, first compound 10 µM
[31] = second compound 10 µM, first compound 0.0316 µM
[32] = second compound 10 µM, first compound 0.1 µM
[33] = second compound 10 µM, first compound 0.316 µM
[34] = second compound 10 µM, first compound 1 µM
[35] = second compound 10 µM, first compound 3.16 µM
[36] = second compound 10 µM, first compound 10 µM
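Further: spheroids exposed to drugs for 7 days before readout.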
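Wherever viability, T/C is given: 100% = DMSO vehicle control wells.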

CC1(C)CCC(CN2CCN(c3ccc(C(=O)NS(=O)(=O)c4ccc(NCC5CCOCC5)c([N+](=O)[O-])c4)c(Oc4cnc5[nH]ccc5c4)c3)CC2)=C(c2ccc(Cl)cc2)C1 + CN1CCN(c2cc(C(=O)Nc3cc4cc(-c5cnn(C)c5)ccc4cn3)ccn2)CC1
IC50 (second compound 0.0316 µM): 5740 nM | IC50 (second compound 0.1 µM): < 31.6 nM | IC50 (second compound 0.316 µM): < 31.6 nM | IC50 (second compound 1 µM): < 31.6 nM | IC50 (second compound 3.16 µM): < 31.6 nM | IC50 (second compound 10 µM): < 31.6 nM | viability, T/C [1]: 95% | viability, T/C [2]: 89.1% | viability, T/C [3]: 90.4% | viability, T/C [4]: 89.2% | viability, T/C [5]: 94.7% | viability, T/C [6]: 11.1% | viability, T/C [7]: 52.3% | viability, T/C [8]: 47.5% | viability, T/C [9]: 45.5% | viability, T/C [10]: 46.1% | viability, T/C [11]: 43.8% | viability, T/C [12]: 3.97% | viability, T/C [13]: 2.64% | viability, T/C [14]: 2.13% | viability, T/C [15]: 2.43% | viability, T/C [16]: 2.21% | viability, T/C [17]: 1.34% | viability, T/C [18]: 0.56% | viability, T/C [19]: 0.41% | viability, T/C [20]: 1.28% | viability, T/C [21]: 0.52% | viability, T/C [22]: 0.24% | viability, T/C [23]: 0.22% | viability, T/C [24]: 0.53% | viability, T/C [25]: 0.68% | viability, T/C [26]: 0.51% | viability, T/C [27]: 0.52% | viability, T/C [28]: 0.34% | viability, T/C [29]: 0.16% | viability, T/C [30]: 0.09% | viability, T/C [31]: 0.38% | viability, T/C [32]: 0.67% | viability, T/C [33]: 0.34% | viability, T/C [34]: 0.45% | viability, T/C [35]: 0.19% | viability, T/C [36]: 1.19%

CC1COCCN1c1cc(C2(S(C)(=N)=O)CC2)nc(-c2ccnc3[nH]ccc23)n1 (stereo unspecified) + CN1CCN(c2cc(C(=O)Nc3cc4cc(-c5cnn(C)c5)ccc4cn3)ccn2)CC1
IC50 (second compound 0.0316 µM): 2100 nM | IC50 (second compound 0.1 µM): < 31.6 nM | IC50 (second compound 0.316 µM): < 31.6 nM | IC50 (second compound 1 µM): < 31.6 nM | IC50 (second compound 3.16 µM): < 31.6 nM | IC50 (second compound 10 µM): < 31.6 nM | viability, T/C [1]: 89.1% | viability, T/C [2]: 87.5% | viability, T/C [3]: 76.5% | viability, T/C [4]: 62.1% | viability, T/C [5]: 43.6% | viability, T/C [6]: 17.9% | viability, T/C [7]: 45.1% | viability, T/C [8]: 51.9% | viability, T/C [9]: 38.9% | viability, T/C [10]: 33.6% | viability, T/C [11]: 18.4% | viability, T/C [12]: 7.47% | viability, T/C [13]: 2.43% | viability, T/C [14]: 2.03% | viability, T/C [15]: 2.19% | viability, T/C [16]: 2.32% | viability, T/C [17]: 2.12% | viability, T/C [18]: 1.33% | viability, T/C [19]: 0.64% | viability, T/C [20]: 0.83% | viability, T/C [21]: 0.8% | viability, T/C [22]: 0.51% | viability, T/C [23]: 0.47% | viability, T/C [24]: 0.27% | viability, T/C [25]: 0.98% | viability, T/C [26]: 1.82% | viability, T/C [27]: 0.92% | viability, T/C [28]: 0.81% | viability, T/C [29]: 0.61% | viability, T/C [30]: 0.4% | viability, T/C [31]: 0.94% | viability, T/C [32]: 0.66% | viability, T/C [33]: 1.4% | viability, T/C [34]: 0.63% | viability, T/C [35]: 0.59% | viability, T/C [36]: 0.74%

NC(=O)C(=Cn1cnc(-c2cc(C(F)(F)F)cc(C(F)(F)F)c2)n1)c1cncnc1 + CN1CCN(c2cc(C(=O)Nc3cc4cc(-c5cnn(C)c5)ccc4cn3)ccn2)CC1
IC50 (second compound 0.0316 µM): 29.4 nM | IC50 (second compound 0.1 µM): < 9.49 nM | IC50 (second compound 0.316 µM): < 9.49 nM | IC50 (second compound 1 µM): < 9.49 nM | IC50 (second compound 3.16 µM): < 9.49 nM | IC50 (second compound 10 µM): < 9.49 nM | viability, T/C (second compound 0.0316 µM, first compound 0.00949 µM): 67.5% | viability, T/C (second compound 0.0316 µM, first compound 0.03 µM): 49.3% | viability, T/C (second compound 0.0316 µM, first compound 0.0949 µM): 33% | viability, T/C (second compound 0.0316 µM, first compound 0.3 µM): 24.1% | viability, T/C (second compound 0.0316 µM, first compound 0.949 µM): 11.3% | viability, T/C (second compound 0.0316 µM, first compound 3 µM): 2.88% | viability, T/C (second compound 0.1 µM, first compound 0.00949 µM): 38.5% | viability, T/C (second compound 0.1 µM, first compound 0.03 µM): 30.8% | viability, T/C (second compound 0.1 µM, first compound 0.0949 µM): 21.1% | viability, T/C (second compound 0.1 µM, first compound 0.3 µM): 4.49% | viability, T/C (second compound 0.1 µM, first compound 0.949 µM): 0.38% | viability, T/C (second compound 0.1 µM, first compound 3 µM): 0.99% | viability, T/C (second compound 0.316 µM, first compound 0.00949 µM): 1.38% | viability, T/C (second compound 0.316 µM, first compound 0.03 µM): 0.32% | viability, T/C (second compound 0.316 µM, first compound 0.0949 µM): 0.86% | viability, T/C (second compound 0.316 µM, first compound 0.3 µM): 0.98% | viability, T/C (second compound 0.316 µM, first compound 0.949 µM): 0.83% | viability, T/C (second compound 0.316 µM, first compound 3 µM): 1.69% | viability, T/C (second compound 1 µM, first compound 0.00949 µM): 0.33% | viability, T/C (second compound 1 µM, first compound 0.03 µM): 0.27% | viability, T/C (second compound 1 µM, first compound 0.0949 µM): 0.22% | viability, T/C (second compound 1 µM, first compound 0.3 µM): 0.36% | viability, T/C (second compound 1 µM, first compound 0.949 µM): 0.45% | viability, T/C (second compound 1 µM, first compound 3 µM): 1.17% | viability, T/C (second compound 3.16 µM, first compound 0.00949 µM): 0.3% | viability, T/C (second compound 3.16 µM, first compound 0.03 µM): 1.41% | viability, T/C (second compound 3.16 µM, first compound 0.0949 µM): 0.93% | viability, T/C (second compound 3.16 µM, first compound 0.3 µM): 0.82% | viability, T/C (second compound 3.16 µM, first compound 0.949 µM): 1.14% | viability, T/C (second compound 3.16 µM, first compound 3 µM): 1.63% | viability, T/C (second compound 10 µM, first compound 0.00949 µM): 1.33% | viability, T/C (second compound 10 µM, first compound 0.03 µM): 1.7% | viability, T/C (second compound 10 µM, first compound 0.0949 µM): 1.02% | viability, T/C (second compound 10 µM, first compound 0.3 µM): 1.05% | viability, T/C (second compound 10 µM, first compound 0.949 µM): 1.22% | viability, T/C (second compound 10 µM, first compound 3 µM): 1.15%
